Counter-ions that a name gives are not always drawn. Like-named read-outs stand apart in the source and are kept apart here.
Columns and labels:
[1] = plasma half-life and oral bioavailability (statement); conditions: in vivo
α7 nAChR = molecular target: T1, α7 nAChR (Rattus norvegicus, UniProt Q05941); assay: whole-cell patch clamp, currents evoked by acetylcholine in KXα7R1; assay type: cell-based; conditions: for current evoked by 280 micromolar acetylcholine, normalized to current elicited by ACh alone (Mean): -80 mV, n=4; for inhibition at 0.1 µM: read-out: inhibition (α7) at 100 nM
T1 construct: expressed in transfected cells; host or cells: KXα7R1
T1 sequence (Q05941 23-502): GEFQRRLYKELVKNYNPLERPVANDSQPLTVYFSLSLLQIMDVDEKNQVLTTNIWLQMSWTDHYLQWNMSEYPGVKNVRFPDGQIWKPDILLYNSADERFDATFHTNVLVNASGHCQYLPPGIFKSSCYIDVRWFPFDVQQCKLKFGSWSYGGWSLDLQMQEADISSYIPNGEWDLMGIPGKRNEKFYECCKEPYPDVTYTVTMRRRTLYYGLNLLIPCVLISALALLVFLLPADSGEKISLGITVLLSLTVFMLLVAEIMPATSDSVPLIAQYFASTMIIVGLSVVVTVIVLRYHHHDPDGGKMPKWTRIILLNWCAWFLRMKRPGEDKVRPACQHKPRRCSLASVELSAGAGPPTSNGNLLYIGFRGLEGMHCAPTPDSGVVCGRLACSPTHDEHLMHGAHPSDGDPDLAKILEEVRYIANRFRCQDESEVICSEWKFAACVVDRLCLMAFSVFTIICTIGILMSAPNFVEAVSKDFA
Text: (§1) Without wishing to be bound to any particular theory applicants believe certain compounds of Formula I exert activity via serine racemase inhibition. Since nicotinic acetylcholine receptors (nAChR) have been validated as a target in analgesia applicants investigated the activity of DHNK at two nAChR subtypes, α7 and α3β4 nAChR. Patch-clamp technique in a whole-cell configuration was used to examine functional activity of ketamine, norketamine, DHNK and HNK metabolites at the α7 and α3β4 neuronal […] receptors (nAChRs). The activity of these compounds at the α3β4 nAChR was investigated using nicotine-stimulated 86Rb+ efflux assays in HEK293 cells expressing the α3β4 nAChR.
Since nicotinic acetylcholine receptors (nAChR) have been validated as a target in analgesia we have investigated the activity of DHNK ([…]) at two nAChR subtypes, α7 and α3β4 nAChR. The patch clamp in a whole cell configuration was used to examine functional activity of ketamine, norketamine, and the DHNK and HNK metabolites on currents evoked by 280 micromolar acetylcholine in the KXα7R1. The data was obtained at −80 mV and normalized to the amplitude of current elicited by ACh alone, n=4.

serine racemase [2] = molecular target: T2, serine racemase (Homo sapiens, UniProt Q9GZT4); assay: intracellular D-serine concentration in 1321N1 astrocytoma cells; assay type: cell-based; parameters: host or cells: 1321N1 astrocytoma; conditions: read-out: IC50, reduction of intracellular D-serine
T2 sequence (Q9GZT4 1-340): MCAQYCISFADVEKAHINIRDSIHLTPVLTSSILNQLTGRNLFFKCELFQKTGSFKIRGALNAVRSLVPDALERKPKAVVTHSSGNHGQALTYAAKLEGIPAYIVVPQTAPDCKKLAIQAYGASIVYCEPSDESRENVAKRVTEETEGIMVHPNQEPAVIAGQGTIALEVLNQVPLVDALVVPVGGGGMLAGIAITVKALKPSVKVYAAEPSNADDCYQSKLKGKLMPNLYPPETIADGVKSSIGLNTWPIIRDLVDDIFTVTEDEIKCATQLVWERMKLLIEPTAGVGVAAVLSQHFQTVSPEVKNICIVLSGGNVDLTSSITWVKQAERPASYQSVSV
Text: Applicants have determined that ketamine inhibits NMDA (N-methyl-D-aspartic acid) receptors by inhibiting serine racemase and thereby limiting the concentration of D-serine available to interact with the NMDA receptor. An indirect inhibition of SR activity by ketamine or ketamine metabolites through the inhibition of nAChR activity was hypothesized. PC12 cells were chosen to test the hypothesis since the cell line expresses active SR and α7 and α3β4 nAChRs.
The cell lines selected for this study were PC-12 pheochromocytoma derived from rat adrenal medulla, human-derived 1321N1 astrocytoma, rat-derived C6 glioblastoma, and human-derived HepG2 hepatocellular carcinoma. All of the cell lines were obtained from ATCC (Manassas, Va., USA). […]
(§2) Instrumentation: The CE separations were performed with a P/ACE MDQ system equipped with a laser-induced fluorescence detector (Beckman Instruments, Fullerton, Calif., USA). The laser-induced fluorescence detection was carried out with excitation at 488 nm and emission at 520 nm. […] Quantification was accomplished using area ratios calculated for FITC-D-Ser with FITCD-Arg as the internal standard, where the concentration of the internal standard was set at 5 μM. […]

α3β4 nAChR = molecular target: T3, α3β4 nAChR (Rattus norvegicus, UniProt P04757+P12392); assay: nicotine-stimulated 86Rb+ efflux in HEK293 cells expressing α3β4 nAChR; whole-cell patch clamp; assay type: cell-based
T3 construct: expressed in transfected cells; host or cells: HEK293
T3 sequence (P04757 26-499): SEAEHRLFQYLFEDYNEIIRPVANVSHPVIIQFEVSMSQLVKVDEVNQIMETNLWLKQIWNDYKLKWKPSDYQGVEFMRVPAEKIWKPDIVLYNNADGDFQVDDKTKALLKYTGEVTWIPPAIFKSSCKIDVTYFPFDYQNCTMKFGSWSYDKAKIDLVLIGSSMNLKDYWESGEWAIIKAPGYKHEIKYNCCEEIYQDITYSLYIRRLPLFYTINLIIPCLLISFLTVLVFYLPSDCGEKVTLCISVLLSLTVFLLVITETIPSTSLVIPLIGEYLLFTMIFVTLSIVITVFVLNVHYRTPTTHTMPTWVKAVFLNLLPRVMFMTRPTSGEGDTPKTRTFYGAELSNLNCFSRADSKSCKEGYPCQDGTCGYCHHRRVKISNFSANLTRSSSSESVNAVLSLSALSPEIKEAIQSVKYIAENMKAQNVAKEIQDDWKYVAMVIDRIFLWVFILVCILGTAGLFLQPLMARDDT
T3 sequence (P12392 21-495): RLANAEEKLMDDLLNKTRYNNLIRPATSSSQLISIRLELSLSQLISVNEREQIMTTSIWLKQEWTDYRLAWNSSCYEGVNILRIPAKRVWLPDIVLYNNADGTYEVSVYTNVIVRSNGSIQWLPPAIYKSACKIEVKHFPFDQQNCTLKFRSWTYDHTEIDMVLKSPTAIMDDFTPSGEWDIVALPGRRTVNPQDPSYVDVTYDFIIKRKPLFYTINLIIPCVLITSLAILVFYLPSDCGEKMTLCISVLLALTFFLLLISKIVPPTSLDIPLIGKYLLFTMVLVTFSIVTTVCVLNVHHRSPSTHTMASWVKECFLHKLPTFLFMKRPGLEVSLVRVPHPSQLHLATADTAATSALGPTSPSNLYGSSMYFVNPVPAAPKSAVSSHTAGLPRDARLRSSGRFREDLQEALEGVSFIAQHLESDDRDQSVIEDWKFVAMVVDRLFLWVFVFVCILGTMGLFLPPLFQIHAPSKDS
Text: as §1

NMDA receptor = NMDA receptor inhibition; assay type: binding; conditions: for Ki: read-out: NMDAR Ki
Procedure: Certain compounds of Formula I discussed in this disclosure were tested in the above serine racemase assay, for NMDA receptor inhibition and inhibition of the nicotinic acetylcholine receptor subtype α7. The assay for nicotinic acetylcholorine receptor subtype α7 is given below in Example 6.

serine racemase [3] = molecular target: T2, serine racemase; assay: serine racemase inhibition assay (intracellular D-serine by CE-LIF); assay type: cell-based; conditions: 36 h incubation, cell line not stated
Text: The cell lines selected for this study were PC-12 pheochromocytoma derived from rat adrenal medulla, human-derived 1321N1 astrocytoma, rat-derived C6 glioblastoma, and human-derived HepG2 hepatocellular carcinoma. All of the cell lines were obtained from ATCC (Manassas, Va., USA). The PC12 cells were maintained in RPMI7 1640 with L-Gln supplemented with 10% horse serum (heat inactivated), 5% FBS, 1% sodium pyruvate solution, 1% HEPES buffer and 1% penicillin/streptomycin solution. The 1321N1 and C6 cells were maintained in DMEM with L-Gln supplemented with 10% FBS and 1% penicillin/streptomycin solution. The HepG2 cells were maintained in E-MEM supplemented with 1% L-Gln, 10% FBS, 1% sodium pyruvate solution and 1% penicillin/streptomycin solution.
as §2

SMILES | activity at α7 nAChR (α7 nAChR) | current evoked by 280 micromolar acetylcholine, normalized to current elicited by ACh alone (Mean) (α7 nAChR; 100 nM) | current evoked by 280 micromolar acetylcholine, normalized to current elicited by ACh alone (Mean) (α7 nAChR; 1000 nM) | inhibition at 0.1 µM (α7 nAChR) [%] | Ki (NMDA receptor) [nM] | also measured
NC1(c2ccccc2Cl)CCC=CC1=O (racemic) [(R,S)-DHNK, (R,S)-dehydronorketamine] | potent inhibitor | 0.407 | 0.205 | – | – | plasma half-life [1]: long; oral bioavailability [1]: orally bioavailable; IC50 (α7 nAChR; read-out: IC50 (α7)): ~50 nM; IC50 (α7 nAChR; read-out: IC50 at α7 nAChR): 50 nM; IC50 (serine racemase [2]): 16.4 nM; activity at α3β4 nAChR (α3β4 nAChR): inactive
NC1(c2ccccc2Cl)CCCCC1=O (racemic) [(R,S)-norKet, norketamine] | inactive | 0.548 | 0.287 | 46 | – | –
N[C@]1(c2ccccc2Cl)CCC[C@H](O)C1=O (stereo in doubt) [(2R,6R)-HNK, (2R,6R)-6-Hydroxynorketamine Hydrochloride] | – | 0.489 | 0.354 | 51 | > 100000 | –
N[C@@]1(c2ccccc2Cl)CCC[C@@H](O)C1=O [(2R,6R; 2S,6S)-hydroxynorketamine] | – | – | – | – | – | activity at the NMDA receptor (NMDA receptor): not active
N[C@@]1(c2ccccc2Cl)CCC[C@@H](O)C1=O [(2S,6S)-HNK, (2S,6S)-6-Hydroxynorketamine Hydrochloride] | – | 0.461 | 0.361 | 54 | 21200 | plasma half-life [1]: long; oral bioavailability [1]: orally bioavailable
N[C@@]1(c2ccccc2Cl)CCC=CC1=O [(R)-DHNK, (R)-5,6-dehydroxynorketamine hydrochloride] | – | – | – | – | 74600 | –
N[C@@]1(c2ccccc2Cl)CCCCC1=O [(R)-norKet, (R)-norketamine, reference compound] | – | – | – | – | 26500 | IC50 (serine racemase [3]): 40 to 80 nM
N[C@]1(c2ccccc2Cl)CCC=CC1=O [(S)-DHNK, (S)-1-amino-2′-chloro-5,6-dihydro-[1,1′-biphenyl]-2(1H)-one] | – | – | – | – | 39000 | –
N[C@]1(c2ccccc2Cl)CCCCC1=O [(S)-norKet, (S)-norketamine, reference compound] | – | – | – | – | 2250 ± 220 | IC50 (serine racemase [3]): 50 to 120 nM
CNC1(c2ccccc2Cl)CCCCC1=O (centres unmarked) [ketamine] | inactive | – | – | – | – | IC50 (α3β4 nAChR): 10000 nM
